Usually Km stands for the substrate concentration at which the rate is half of its maximum.

The target in data set [1] is Multidrug resistance associated protein (Homo sapiens) (UniProt Q96QA9). Briefly: TP_TRANSPORTER: increase in Etoposide intracellular accumulation (Etoposide: 2 uM, Indomethacin: 500 uM) in MRP3-expressing fibroblast from kidney of mdr1a/1b and mrp1 (-/-) mouse. In kind it is functional, cell-based. Conditions: mdr1a/1b (-/-) and mrp1 (-/-) fibroblasts.
Data set [2] has the same target. Kind of data set: TP_TRANSPORTER: increase in Etoposide intracellular accumulation (Etoposide: 2 uM, Sulfinpyrazone: 2000 uM) in MRP3-expressing fibroblast from kidney of mdr1a/1b and mrp1 (-/-) mouse. In kind it is functional, cell-based. Conditions: mdr1a/1b (-/-) and mrp1 (-/-) fibroblasts.
For data set [3] the target is unchanged. Kind of data set: (§1) TP_TRANSPORTER: uptake in membrane vesicle from MRP3-expressing Sf9 cells. In kind it is functional, cell membranes.
Data set [4] shares this target. Briefly: TP_TRANSPORTER: efflux in MRP3-expressing fibroblast from kidney of mdr1a/1b and mrp1 (-/-) mouse. In kind it is functional, cell-based. Conditions: mdr1a/1b (-/-) and mrp1 (-/-) fibroblasts.
Substrate in data set [5]: COc1cc([C@@H]2c3cc4c(cc3[C@@H](O[C@@H]3O[C@@H]5CO[C@@H](C)O[C@H]5[C@H](O)[C@H]3O)[C@H]3COC(=O)[C@H]23)OCO4)cc(OC)c1O[C@@H]1O[C@H](C(=O)O)[C@@H](O)[C@H](O)[C@H]1O
The description is as §1. It counts as functional, cell membranes.

Substrate in data set [6]: C[C@]12CC[C@@H]3c4ccc(O)cc4CC[C@H]3[C@@H]1CC[C@@H]2O[C@@H]1O[C@H](C(=O)O)[C@@H](O)[C@H](O)[C@H]1O
The description is as §1. It counts as functional, cell membranes.

For `COc1ccc2c(c1)c(CC(=O)O)c(C)n2C(=O)c1ccc(Cl)cc1`, the Activity entry in data set [1] is “inhibitor [[…] -> […] % of control (clone#38), 30 -> […] % of control (clone#77)]”.
In the case of `O=C1C(CC[S+]([O-])c2ccccc2)C(=O)N(c2ccccc2)N1c1ccccc1` (stereo unspecified), the Activity result in data set [2] was “inhibitor [18 -> 83 % of control (clone#38), 30 -> 77 % of control (clone#77)]”.
Take `N[C@@H](CCC(=O)N[C@@H](CS)C(=O)NCC(=O)O)C(=O)O`: the Activity entry in data set [3] was “is not a substrate [-]”.
With `COc1cc([C@@H]2c3cc4c(cc3[C@@H](O[C@@H]3O[C@@H]5CO[C@@H](C)O[C@H]5[C@H](O)[C@H]3O)[C@H]3COC(=O)[C@H]23)OCO4)cc(OC)c1O`, the Activity result in data set [4] was “substrate [+]”.

B1: Multidrug resistance associated protein (Homo sapiens), Q96QA9 (protein)
chain: MDALCGSGELGSKFWDSNLSVHTENPDLTPCFQNSLLAWVPCIYLWVALPCYLLYLRHHCRGYIILSHLSKLKMVLGVLLWCVSWADLFYSFHGLVHGRAPAPVFFVTPLVVGVTMLLATLLIQYERLQGVQSSGVLIIFWFLCVVCAIVPFRSKILLAKAEGEISDPFRFTTFYIHFALVLSALILACFREKPPFFSAKNVDPNPYPETSAGFLSRLFFWWFTKMAIYGYRHPLEEKDLWSLKEEDRSQMVVQQLLEAWRKQEKQTARHKASAAPGKNASGEDEVLLGARPRPRKPSFLKALLATFGSSFLISACFKLIQDLLSFINPQLLSILIRFISNPMAPSWWGFLVAGLMFLCSMMQSLILQHYYHYIFVTGVKFRTGIMGVIYRKALVITNSVKRASTVGEIVNLMSVDAQRFMDLAPFLNLLWSAPLQIILAIYFLWQNLGPSVLAGVAFMVLLIPLNGAVAVKMRAFQVKQMKLKDSRIKLMSEILNGIKVLKLYAWEPSFLKQVEGIRQGELQLLRTAAYLHTTTTFTWMCSPFLVTLITLWVYVYVDPNNVLDAEKAFVSVSLFNILRLPLNMLPQLISNLTQASVSLKRIQQFLSQEELDPQSVERKTISPGYAITIHSGTFTWAQDLPPTLHSLDIQVPKGALVAVVGPVGCGKSSLVSALLGEMEKLEGKVHMKGSVAYVPQQAWIQNCTLQENVLFGKALNPKRYQQTLEACALLADLEMLPGGDQTEIGEKGINLSGGQRQRVSLARAVYSDADIFLLDDPLSAVDSHVAKHIFDHVIGPEGVLAGKTRVLVTHGISFLPQTDFIIVLADGQVSEMGPYPALLQRNGSFANFLCNYAPDEDQGHLEDSWTALEGAEDKEALLIEDTLSNHTDLTDNDPVTYVVQKQFMRQLSALSSDGEGQGRPVPRRHLGPSEKVQVTEAKADGALTQEEKAAIGTVELSVFWDYAKAVGLCTTLAICLLYVGQSAAAIGANVWLSAWTNDAMADSRQNNTSLRLGVYAALGILQGFLVMLAAMAMAAGGIQAARVLHQALLHNKIRSPQSFFDTTPSGRILNCFSKDIYVVDEVLAPVILMLLNSFFNAISTLVVIMASTPLFTVVILPLAVLYTLVQRFYAATSRQLKRLESVSRSPIYSHFSETVTGASVIRAYNRSRDFEIISDTKVDANQRSCYPYIISNRWLSIGVEFVGNCVVLFAALFAVIGRSSLNPGLVGLSVSYSLQVTFALNWMIRMMSDLESNIVAVERVKEYSKTETEAPWVVEGSRPPEGWPPRGEVEFRNYSVRYRPGLDLVLRDLSLHVHGGEKVGIVGRTGAGKSSMTLCLFRILEAAKGEIRIDGLNVADIGDPILFSGTLRMNLDPFGSYSEEDIWWALELSHLHTFVSSQPAGLDFQCSEGGENLSVGQRQLVCLARALLRKSRILVLDEATAAIDLETDNLIQATIRTQFDTCTVLTIAHRLNTIMDYTRVLVLDKGVVAEFDSPANLIAARGIFYGMARDAGLA
On to B1, for which the results for the Km in data set [5] and in data set [6] were 11.4 µM and 17.7 µM, respectively.
